In patent publication US12344623B2, “Thiazolopyridine derivatives as adenosine receptor antagonists” (Merck Patent GmbH, priority 2019, dated 2025):
Read-outs that look alike come from different tables or passages of the source.

Tests used:
Assay type in all cases: cell-based
human A2B receptor = target: T1, human A2B receptor (Homo sapiens, UniProt P29275); experiment: Functional A2B receptor activity, recombinant HEK293 cells, cAMP (HTRF), agonist NECA
T1 construct: expressed in transfected cells; host or cells: HEK293
T1 sequence (P29275 1-332): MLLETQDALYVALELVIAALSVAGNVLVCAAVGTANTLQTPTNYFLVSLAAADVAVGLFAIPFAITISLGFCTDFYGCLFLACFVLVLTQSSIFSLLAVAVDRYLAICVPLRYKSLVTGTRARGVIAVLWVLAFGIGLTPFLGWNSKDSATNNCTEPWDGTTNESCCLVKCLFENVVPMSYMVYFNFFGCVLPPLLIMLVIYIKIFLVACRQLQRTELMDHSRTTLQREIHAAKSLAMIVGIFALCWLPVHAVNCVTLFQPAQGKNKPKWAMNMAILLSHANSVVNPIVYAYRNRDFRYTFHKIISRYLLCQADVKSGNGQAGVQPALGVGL
How it was run: (§1)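 Forskolin, test compounds and agonist were added together to the cells and incubated for 30 min. Cellular cAMP was then quantified by HTRF. Raw signals were normalized to an inhibitor control and a neutral DMSO control, and the normalized data were curve-fitted.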

human A3 receptor = target: T2, human A3 receptor (Homo sapiens, UniProt P0DMS8); experiment: Functional A3 receptor activity, recombinant CHO cells, cAMP (HTRF), forskolin, agonist IB-MECA; conditions: recombinant CHO cells, forskolin, agonist IB-MECA; read-out: Functional A3 receptor activity, CHO, cAMP, IC50
T2 construct: expressed in transfected cells; host or cells: CHO
T2 sequence (P0DMS8 1-318): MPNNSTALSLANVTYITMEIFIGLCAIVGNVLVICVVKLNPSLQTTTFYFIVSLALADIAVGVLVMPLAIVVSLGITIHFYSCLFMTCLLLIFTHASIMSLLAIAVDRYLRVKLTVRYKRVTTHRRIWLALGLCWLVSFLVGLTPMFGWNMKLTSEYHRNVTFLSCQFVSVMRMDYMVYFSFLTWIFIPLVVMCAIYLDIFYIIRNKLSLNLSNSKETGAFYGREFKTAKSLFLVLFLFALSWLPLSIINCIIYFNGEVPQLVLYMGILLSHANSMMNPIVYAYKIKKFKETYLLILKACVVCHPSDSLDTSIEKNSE
How it was run: (§2)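 Gi-coupled readout: CHO cells expressing human A1 or A3 receptor were treated with forskolin, test compound and agonist (CPA for A1, IB-MECA for A3) for 30 min; cellular cAMP was then measured by HTRF. Data were normalized to inhibitor and DMSO controls and curve-fitted.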

human A1 receptor = target: T3, human A1 receptor (Homo sapiens, UniProt P30542); experiment: Functional A1 receptor activity, recombinant CHO cells, cAMP (HTRF), forskolin, agonist CPA; conditions: recombinant CHO cells, forskolin, agonist CPA; read-out: Functional A1 receptor activity, CHO, cAMP, IC50
T3 construct: expressed in transfected cells; host or cells: CHO
T3 sequence (P30542 1-326): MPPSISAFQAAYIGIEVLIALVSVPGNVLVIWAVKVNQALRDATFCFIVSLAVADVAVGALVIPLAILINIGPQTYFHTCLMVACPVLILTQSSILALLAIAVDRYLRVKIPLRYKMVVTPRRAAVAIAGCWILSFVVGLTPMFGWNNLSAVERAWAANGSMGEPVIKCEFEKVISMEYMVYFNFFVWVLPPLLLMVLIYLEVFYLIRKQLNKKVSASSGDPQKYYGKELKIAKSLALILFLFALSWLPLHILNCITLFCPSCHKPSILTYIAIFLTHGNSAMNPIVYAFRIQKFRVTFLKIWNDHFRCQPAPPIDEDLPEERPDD
How it was run: as §2

human A2A receptor [1] = target: T4, human A2A receptor (Homo sapiens, UniProt P29274); experiment: Functional A2A receptor activity, recombinant HEK293 cells, cAMP (HTRF), agonist NECA; parameters: expressed in transfected cells; host or cells: HEK293
T4 sequence (P29274 whole entry): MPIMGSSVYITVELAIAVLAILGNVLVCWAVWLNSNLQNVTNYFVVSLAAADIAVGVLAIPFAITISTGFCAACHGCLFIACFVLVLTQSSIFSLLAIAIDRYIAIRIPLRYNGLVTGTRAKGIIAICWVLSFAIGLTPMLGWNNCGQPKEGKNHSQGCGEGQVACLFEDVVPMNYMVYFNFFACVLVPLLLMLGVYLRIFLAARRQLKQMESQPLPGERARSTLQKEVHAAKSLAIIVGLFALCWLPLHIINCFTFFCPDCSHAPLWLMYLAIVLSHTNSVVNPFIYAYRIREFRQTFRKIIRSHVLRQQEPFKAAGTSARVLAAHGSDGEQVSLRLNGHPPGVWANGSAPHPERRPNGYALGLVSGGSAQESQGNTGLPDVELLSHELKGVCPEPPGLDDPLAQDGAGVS
How it was run: as §1

human A2A receptor [2] = target: T4, human A2A receptor; experiment: Human T cells, endogenous A2A receptor, cAMP, agonist NECA
Description: The endogenous functional activity of the Gs-coupled human A2A receptor was measured in T cells, where this receptor is highly expressed. Determination of receptor activity was done by quantification of cAMP, which is a second messenger for adenosine receptors.
In short, human pan T cells were isolated from human PBMC (MACS Pan T Cell Isolation Kit, Miltenyi Biotec) that have been derived from fresh whole blood. The T cells were seeded in 384-well microtiter plates and treated with test compounds. […] Finally, HTRF reagents (cAMP Femto Kit, CisBio) were added to the wells, and after 1 h cellular cAMP levels were determined using the ENVISION (Perkin Elmer) plate reader.
The obtained raw data were normalized against the inhibitor control and the neutral control (DMSO) and the normalized data were fitted using Genedata Screener software.

[3] = read-out: Functional A2B receptor activity, HEK293, cAMP, IC50
[4] = read-out: Functional A2A receptor activity, HEK293, cAMP, IC50
[5] = read-out: hTcell data, cAMP, IC50

SMILES | IC50 (human A2B receptor; [3]) | IC50 (human A3 receptor) | IC50 (human A1 receptor) | IC50 (human A2A receptor [1]; [4]) | IC50 (human A2A receptor [2]; [5]) | IC50 (human A2B receptor) | IC50 (human A2A receptor [1]) | IC50 (human A2A receptor [2])
COc1nc(F)c(C2CCOCC2)c2sc(NC(=O)N3CC[C@@]4(CCOC4)C3)nc12 [Compound 37, (R)-2-Oxa-7-aza-spiro[4.4]nonane-7-carboxylic acid [6-fluoro-4-methoxy-7-(tetrahydro-pyran-4-yl)-thiazolo[4,5-c]pyridin-2-yl]-amide] | < 0.1 µM | > 1 µM | > 1 µM | < 0.01 µM | < 0.01 µM | – | – | –
COc1ncc(C2=CCCCC2)c2sc(NC(=O)N3CCC4(CCOCC4)C3)nc12 [Compound 59, 8-Oxa-2-aza-spiro[4.5]decane-2-carboxylic acid (7-cyclohex-1-enyl-4-methoxy-thiazolo[4,5-c]pyridin-2-yl)-amide] | < 0.1 µM | > 1 µM | < 1 µM | < 0.01 µM | < 0.01 µM | – | – | –
COc1ncc(C2=CCC(F)(F)CC2)c2sc(NC(=O)N3CCC4(CCOCC4)C3)nc12 [Compound 63, 8-Oxa-2-aza-spiro[4.5]decane-2-carboxylic acid [7-(4,4-difluoro-cyclohex-1-enyl)-4-methoxy-thiazolo[4,5-c]pyridin-2-yl]-amide] | < 0.1 µM | > 1 µM | < 1 µM | < 0.01 µM | < 0.01 µM | – | – | –
COc1ncc(C2=CCOCC2)c2sc(NC(=O)c3c[nH]cn3)nc12 [Compound 65, 1H-Imidazole-4-carboxylic acid [7-(3,6-dihydro-2H-pyran-4-yl)-4-methoxy-thiazolo[4,5-c]pyridin-2-yl]-amide] | < 0.01 µM | > 1 µM | < 0.1 µM | < 0.01 µM | < 0.01 µM | – | – | –
COc1ncc(-c2cnn(Cc3ccccn3)c2)c2sc(NC(=O)N3CCC4(CCOCC4)C3)nc12 [Compound 69, 8-Oxa-2-aza-spiro[4.5]decane-2-carboxylic acid [4-methoxy-7-(1-pyridin-2-ylmethyl-1H-pyrazol-4-yl)-thiazolo[4,5-c]pyridin-2-yl]-amide] | < 0.01 µM | < 1 µM | < 0.1 µM | < 0.01 µM | < 0.01 µM | – | – | –
COc1ncc(C2=CCOCC2)c2sc(NC(=O)c3ccc(-n4ccnn4)cc3)nc12 [Compound 71, N-[7-(3,6-dihydro-2H-pyran-4-yl)-4-methoxy-[1,3]thiazolo[4,5-c]pyridin-2-yl]-4-(1H-1,2,3-triazol-1-yl)benzamide] | < 0.01 µM | > 1 µM | < 1 µM | < 0.01 µM | < 0.01 µM | – | – | –
COc1ncc(C2=CCOCC2)c2sc(NC(=O)c3ccc(C(=O)O)cc3)nc12 [Compound 72, 4-{[7-(3,6-dihydro-2H-pyran-4-yl)-4-methoxy-[1,3]thiazolo[4,5-c]pyridin-2-yl]carbamoyl}benzoic acid] | < 0.01 µM | > 1 µM | < 1 µM | < 0.01 µM | < 0.1 µM | – | – | –
COc1ncc(-c2cnn(CC(F)F)c2)c2sc(NC(=O)N3CCC4(CCOCC4)C3)nc12 [Compound 74, 8-Oxa-2-aza-spiro[4.5]decane-2-carboxylic acid {7-[1-(2,2-difluoro-ethyl)-1H-pyrazol-4-yl]-4-methoxy-thiazolo[4,5-c]pyridin-2-yl}-amide] | < 0.1 µM | > 1 µM | < 1 µM | < 0.01 µM | < 0.1 µM | – | – | –
COc1ncc(C2=CCOCC2)c2sc(NC(=O)Nc3ccc(N4CCCC4=O)cc3)nc12 [Compound 89, 3-[7-(3,6-dihydro-2H-pyran-4-yl)-4-methoxy-[1,3]thiazolo[4,5-c]pyridin-2-yl]-1-[4-(2-oxopyrrolidin-1-yl)phenyl]urea] | < 0.1 µM | > 1 µM | > 1 µM | < 0.01 µM | < 0.01 µM | – | – | –
COc1ncc(C2=CCOCC2)c2sc(NC(=O)N3CCC(N4C(=O)CSC4=O)CC3)nc12 [Compound 91, N-[7-(3,6-dihydro-2H-pyran-4-yl)-4-methoxy-[1,3]thiazolo[4,5-c]pyridin-2-yl]-4-(2,4-dioxo-1,3-thiazolidin-3-yl)piperidine-1-carboxamide] | < 0.01 µM | > 1 µM | > 1 µM | < 0.01 µM | < 0.01 µM | – | – | –
COC(=O)N(C)Cc1ccc(C(=O)Nc2nc3c(OC)ncc(-c4ccccc4)c3s2)cc1 [Compound 97, [4-(4-Methoxy-7-phenyl-thiazolo[4,5-c]pyridin-2-ylcarbamoyl)-benzyl]-methyl-carbamic acid methyl ester] | < 0.1 µM | > 1 µM | > 1 µM | < 0.01 µM | < 0.1 µM | – | – | –
COc1ncc(C2COCCO2)c2sc(NC(=O)c3ccc(C(=O)O)cc3)nc12 (centres unmarked) [Compound 161, N-(7-[1,4]Dioxan-2-yl-4-methoxy-thiazolo[4,5-c]pyridin-2-yl)-terephthalamic acid] | < 0.1 µM | > 1 µM | > 1 µM | < 0.01 µM | < 0.1 µM | – | – | –
COc1ncc(C2COCCO2)c2sc(NC(=O)c3ccc(-c4nnn[nH]4)cc3)nc12 (centres unmarked) [Compound 164, N-(7-[1,4]Dioxan-2-yl-4-methoxy-thiazolo[4,5-c]pyridin-2-yl)-4-(1H-tetrazol-5-yl)-benzamide] | < 0.01 µM | > 1 µM | > 1 µM | < 0.01 µM | < 0.1 µM | – | – | –
COc1ncc([C@H]2COCCO2)c2sc(NC(=O)c3ccc(C(=O)O)cc3)nc12 [Compound 170, N-((S)-7-[1,4]Dioxan-2-yl-4-methoxy-thiazolo[4,5-c]pyridin-2-yl)-terephthalamic acid] | < 0.1 µM | > 1 µM | > 1 µM | < 0.01 µM | < 0.01 µM | – | – | –
[2H]C([2H])([2H])Oc1ncc(C2=CCOCC2)c2sc(NC(=O)N3CC[C@]4(CCCOC4)C3)nc12 [Compound 173, (5R)-N-[7-(3,6-dihydro-2H-pyran-4-yl)-4-(2H3)methoxy-[1,3]thiazolo[4,5-c]pyridin-2-yl]-7-oxa-2-azaspiro[4.5]decane-2-carboxamide] | < 0.01 µM | > 1 µM | < 1 µM | < 0.01 µM | < 0.01 µM | – | – | –
[2H]C([2H])([2H])Oc1ncc(C2=CCOCC2)c2sc(NC(=O)N3CC[C@@]4(CCCOC4)C3)nc12 [Compound 174, (5S)-N-[7-(3,6-dihydro-2H-pyran-4-yl)-4-(2H3)methoxy-[1,3]thiazolo[4,5-c]pyridin-2-yl]-7-oxa-2-azaspiro[4.5]decane-2-carboxamide] | – | > 1 µM | > 1 µM | – | – | < 0.1 µM | < 0.01 µM | < 0.01 µM
